This test deals with T1, STAT6 (endogenous, HiBiT-tagged) in HeLa LgBiT clone 4.14 cells (Homo sapiens, UniProt P42226).
T1 construct: These cells express endogenous STAT6; host or cells: HeLa LgBiT clone 4.14
T1 sequence (P42226 1-847): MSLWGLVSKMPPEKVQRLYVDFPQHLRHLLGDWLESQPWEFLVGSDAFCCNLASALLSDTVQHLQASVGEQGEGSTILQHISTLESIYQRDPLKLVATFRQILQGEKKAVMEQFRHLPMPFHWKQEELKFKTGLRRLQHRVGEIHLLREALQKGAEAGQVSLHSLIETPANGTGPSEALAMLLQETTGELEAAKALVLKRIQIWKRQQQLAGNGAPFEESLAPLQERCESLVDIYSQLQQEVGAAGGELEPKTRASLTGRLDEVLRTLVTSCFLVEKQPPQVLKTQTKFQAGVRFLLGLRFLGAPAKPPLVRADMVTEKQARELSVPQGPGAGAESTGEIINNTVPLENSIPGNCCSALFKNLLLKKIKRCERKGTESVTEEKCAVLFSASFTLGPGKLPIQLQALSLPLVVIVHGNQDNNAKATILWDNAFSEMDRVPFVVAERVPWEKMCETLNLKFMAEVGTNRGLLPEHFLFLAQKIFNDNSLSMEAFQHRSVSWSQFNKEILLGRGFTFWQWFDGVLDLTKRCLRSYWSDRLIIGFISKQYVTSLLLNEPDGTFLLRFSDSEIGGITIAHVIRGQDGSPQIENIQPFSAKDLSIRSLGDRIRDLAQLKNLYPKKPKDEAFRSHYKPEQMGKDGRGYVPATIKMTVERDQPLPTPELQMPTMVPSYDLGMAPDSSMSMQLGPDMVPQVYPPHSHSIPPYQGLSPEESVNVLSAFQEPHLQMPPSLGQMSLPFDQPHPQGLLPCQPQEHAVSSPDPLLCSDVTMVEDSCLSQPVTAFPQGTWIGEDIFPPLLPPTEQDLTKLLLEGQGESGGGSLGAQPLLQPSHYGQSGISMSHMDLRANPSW
As to the kind of experiment: STAT6 Degrader Assay (HiBiT based, HeLa LgBiT clone 4.14 cells, luminescence, DC50). The settings on record: geometric mean; for Emax: Emax provided for test compounds with <80% Emax (and 2c15), read-out: STAT6 degradation Emax; for DC50: DC50 provided for test compounds with >80% Emax, read-out: STAT6 degradation DC50. Format: cell-based. How it is done:
This was a HiBit based assay. A HeLa cell line stably transfected with a small protein, LgBit (Large Bit) was obtained from Promega. These cells express endogenous STAT6. A small 11 amino acid gene sequence (HiBiT) was inserted in the STAT6 gene using CRISPR technology. Once STAT6 protein is expressed in the cells, the HiBiT sequence will bind the LgBit in the cells resulting in a functional NanoBiT protein, giving a luminescent tag to STAT6. Single cell clones were prepared and the clone 4.14 was selected for the assay based on that clone showing high luminescence, high STAT6 phosphorylation upon stimulation with IL-4, and inhibition of luminescence when cells were treated with STAT6 siRNA. HeLa LgBiT clone 4.14 cells were suspended in DMEM with 10% FCS, 1% Pen/Strep, Na-pyrovate and Hygromycin B, at a concentration of […]. 5000 cells were added pr well of a 384 well plate and 20 nL of compound was added by Echo® liquid handler. NN6394A (terfenadine, a toxic compound) was added to control wells at 50 µM concentration to establish the assay window. In these wells the cells are dead which equals 100% degradation of STAT6. After 4-24 h of incubation at 37° C. under 5% CO2/95% air, […] substrate (Nano-GLO®) was added to the wells and the plates were centrifuged and incubated for 0.5 h. The luminescence in the wells as a measure of non-degraded STAT6 was measured in a plate reader (BMG Pherastar FSX). The dose-response curves for Examples 2a2, 2t1, 2 h3, and 2r1 are shown below (where percent degradation is plotted vs. test compound concentration in M on a log-scale).
In general terms: HiBiT is a short tag that completes a luciferase, so light tracks the accessible tagged protein.

Some results are limits rather than exact numbers.

For `Cc1cc(C(=O)N2CCC(CN3CCN(c4ccc(NC5CCC(=O)NC5=O)cc4F)CC3)CC2)cc(C)c1C1=CCN(Cc2cc3c(-c4ccc(N)nc4)ccnc3n2C)CC1` (stereo not shown) [Example 2c15, 3-((4-(4-((1-(4-(1-((4-(6-aminopyridin-3-yl)-1-methyl-1H-pyrrolo[2,3-b]pyridin-2-yl)methyl)-1,2,3,6-tetrahydropyridin-4-yl)-3,5-dimethylbenzoyl)piperidin-4-yl)methyl)piperazin-1-yl)-3-fluorophenyl)amino)piperidine-2,6-dione], the Emax is 80 to 90%.
As for `C[C@@H](c1cc2c(-c3ccc4[nH]ncc4c3)ccnc2n1C)N1CCC(c2ccc(C(=O)N3CCC(CN4CCN(c5ccc(NC6CCC(=O)NC6=O)cc5F)CC4)CC3)cc2)CC1` (stereo partly drawn) [Example 2c17, 3-((4-(4-((1-(4-(1-((S)-1-(4-(1H-indazol-5-yl)-1-methyl-1H-pyrrolo[2,3-b]pyridin-2-yl)-ethyl)piperidin-4-yl)benzoyl)piperidin-4-yl)methyl)piperazin-1-yl)-3-fluorophenyl)amino)piperidine-2,6-dione], the DC50 was 2.7 nM.
As to `Cn1c(CN2CCC(c3ccc(C(=O)N4CCC(CN5CCN(c6c(F)cc(NC7CCC(=O)NC7=O)cc6F)CC5)CC4)cc3)CC2)cc2c(-c3ccc4[nH]ncc4c3)ccnc21` (stereo not shown) [Example 2c34, 3-((4-(4-((1-(4-(1-((4-(1H-indazol-5-yl)-1-methyl-1H-pyrrolo[2,3-b]pyridin-2-yl)methyl)-piperidin-4-yl)benzoyl)piperidin-4-yl)methyl)piperazin-1-yl)-3,5-difluorophenyl)amino)piperidine-2,6-dione], the maximal effect (Emax) lay in the range of 70 to 80%.
Still for that read-out and setting: next, `Cn1c(CN2CC=C(c3ccc(C(=O)N4CCn5nc(CN6CCC(c7ccc(NC8CCC(=O)NC8=O)cc7F)CC6)cc5C4)cn3)CC2)cc2c(-c3ccc(N)nc3)ccnc21` (stereo not shown) [Example 2c37, 3-((4-(1-((5-(1′-((4-(6-aminopyridin-3-yl)-1-methyl-1H-pyrrolo[2,3-b]pyridin-2-yl)methyl)-1′, 2′, 3′, 6′-tetrahydro-[2,4′-bipyridine]-5-carbonyl)-4,5,6,7-tetrahydropyrazolo[1,5-a]pyrazin-2-yl)methyl)piperidin-4-yl)-3-fluorophenyl)amino)piperidine-2,6-dione]: less than 20%; `Cn1c(CN2CC=C(c3ccc(C(=O)N4CCn5nc(CN6CCC(c7ccc(NC8CCC(=O)NC8=O)cc7F)CC6)cc5C4)cn3)CC2)cc2c(-c3ccc(N)nn3)ccnc21` (stereo not shown) [Example 2c38, 3-((4-(1-((5-(1′-((4-(6-aminopyridazin-3-yl)-1-methyl-1H-pyrrolo[2,3-b]pyridin-2-yl)methyl)-1′, 2′, 3′, 6′-tetrahydro-[2,4′-bipyridine]-5-carbonyl)-4,5,6,7-tetrahydropyrazolo[1,5-a]pyrazin-2-yl)methyl)piperidin-4-yl)-3-fluorophenyl)amino)piperidine-2,6-dione]: less than 20%; `Cn1c(CN2CCN(c3ccc(C(=O)N4CCC(CN5CCN(c6ccc(NC7CCC(=O)NC7=O)cc6F)CC5)CC4)cc3)CC2)cc2c(-c3ccc(N)nc3)ccnc21` (stereo not shown) [Example 2c39, 3-((4-(4-((1-(4-(4-((4-(6-aminopyridin-3-yl)-1-methyl-1H-pyrrolo[2,3-b]pyridin-2-yl)methyl)piperazin-1-yl)benzoyl)piperidin-4-yl)methyl)piperazin-1-yl)-3-fluorophenyl)amino)piperidine-2,6-dione]: less than 20%.
Consider `COc1cc(C2CCN(Cc3cc4n(n3)CCN(C(=O)c3ccc(C5CCN([C@@H](C)c6cc7c(-c8ccc(N)nc8)ccnc7n6C)CC5)cc3)C4)CC2)ccc1NC1CCC(=O)NC1=O` (stereo partly drawn) [Example 2c44, 3-((4-(1-((5-(4-(1-((S)-1-(4-(6-aminopyridin-3-yl)-1-methyl-1H-pyrrolo[2,3-b]pyridin-2-yl)ethyl)piperidin-4-yl)benzoyl)-4,5,6,7-tetrahydropyrazolo[1,5-a]pyrazin-2-yl)methyl)piperidin-4-yl)-2-methoxyphenyl)amino)piperidine-2,6-dione], for which the DC50 came out at 0.7 nM.
As to `Cc1cc(C(=O)N2CCn3nc(CN4CCC(c5ccc(NC6CCC(=O)NC6=O)cc5F)CC4)cc3C2)cnc1C1=CCN(Cc2cc3c(-c4ccc(N)nn4)ccnc3n2C)CC1` (stereo not shown) [Example 2c48, 3-((4-(1-((5-(1′-((4-(6-aminopyridazin-3-yl)-1-methyl-1H-pyrrolo[2,3-b]pyridin-2-yl)methyl)-3-methyl-1′, 2′, 3′, 6′-tetrahydro-[2,4′-bipyridine]-5-carbonyl)-4,5,6,7-tetrahydropyrazolo[1,5-a]pyrazin-2-yl)methyl)piperidin-4-yl)-3-fluorophenyl)amino)piperidine-2,6-dione], the maximal effect (Emax) was less than 20%.
On to `COCc1nc2cc(-c3ccnc4c3cc(CN3CCC(c5ccc(C(=O)N6CCC(CN7CCN(Cc8ccc(-n9cc(N%10CCC(=O)NC%10=O)nn9)cc8)CC7)CC6)cc5)CC3)n4C)ccc2[nH]1` [Example 2c56, 1-(1-(4-((4-((1-(4-(1-((4-(2-(methoxymethyl)-1H-benzo[d]imidazol-5-yl)-1-methyl-1H-pyrrolo[2,3-b]pyridin-2-yl)methyl)piperidin-4-yl)benzoyl)piperidin-4-yl)methyl)piperazin-1-yl)methyl)-phenyl)-1H-1,2,3-triazol-4-yl) dihydropyrimidine-2,4 (1H,3H)-dione], for which the maximum response (Emax) was less than 20%.
Consider `CNc1ccc(-c2ccnc3c2cc([C@@H](C)N2CC=C(c4c(C)cc(C(=O)N5CCC(CCn6cc(-c7ccc(NC8CCC(=O)NC8=O)cc7)nn6)CC5)cc4F)CC2)n3C)cn1` (stereo partly drawn) [Example 2c57, 3-((4-(1-(2-(1-(3-fluoro-5-methyl-4-(1-((R)-1-(1-methyl-4-(6-(methylamino)pyridin-3-yl)-1H-pyrrolo[2,3-b]pyridin-2-yl)ethyl)-1,2,3,6-tetrahydropyridin-4-yl)benzoyl)piperidin-4-yl)ethyl)-1H-1,2,3-triazol-4-yl)phenyl)amino)piperidine-2,6-dione], for which the Emax was less than 20%.
As to `Cn1c(CN2CCC(c3ccc(C(=O)N4CCC(CN5CCN(c6ccc(C(=O)NC7CCC(=O)NC7=O)nn6)CC5)CC4)cc3)CC2)cc2c(-c3ccc4[nH]ncc4c3)ccnc21` (stereo not shown) [Example 2d1, 6-(4-((1-(4-(1-((4-(1H-indazol-5-yl)-1-methyl-1H-pyrrolo[2,3-b]pyridin-2-yl)methyl)-piperidin-4-yl)benzoyl)piperidin-4-yl)methyl)piperazin-1-yl)-N-(2,6-dioxopiperidin-3-yl) pyridazine-3-carboxamide], the Emax lay in the range of 50 to 60%.
The same measure, in the same setting: next, `Cn1c(CN2CCC(c3ccc(C(=O)N4CCC(CN5CCN(C(=O)c6ccc(NC7CCC(=O)NC7=O)cc6F)CC5)CC4)cc3)CC2)cc2c(-c3ccc(N)nc3)ccnc21` (stereo not shown) [Example 2e2, 3-((4-(4-((1-(4-(1-((4-(6-aminopyridin-3-yl)-1-methyl-1H-pyrrolo[2,3-b]pyridin-2-yl)methyl)-piperidin-4-yl)benzoyl)piperidin-4-yl)methyl)piperazine-1-carbonyl)-3-fluorophenyl)amino)piperidine-2,6-dione]: less than 20%; `C[C@H]1CN(c2ccc(NC3CCC(=O)NC3=O)cc2F)CCN1CC1CCN(C(=O)c2ccc(C3CCN(Cc4cc5c(-c6ccc(N)nc6)ccnc5n4C)CC3)cc2)CC1` (stereo partly drawn) [Example 2f3, 3-((4-((S)-4-((1-(4-(1-((4-(6-aminopyridin-3-yl)-1-methyl-1H-pyrrolo[2,3-b]pyridin-2-yl)methyl)piperidin-4-yl)benzoyl)piperidin-4-yl)methyl)-3-methylpiperazin-1-yl)-3-fluorophenyl)amino)-piperidine-2,6-dione]: 20 to 30%.

Broadly, the Emax is the size of the effect at its maximum, as opposed to the concentration needed. As a reminder, the DC50 is the concentration giving 50% degradation.

For the origin of these results see patent publication US20260014147A1, “STAT6 DEGRADERS” (Gilead Sciences, Inc., priority 2024, published 2026).
